The source of these data is publication PMC10703885 (Cell Death & Disease, 2023).

Read-outs that look alike come from different tables or passages of the source.

Data set [1] concerns HCT116 cells. As to the kind of experiment: CCK-8 cell viability assay. The following applies: for IC50: Homo sapiens. It is filed as cell-based. How it is done:
(§1) The cells were cultured in 96-well plates at a density of 5 × 10^3 cells/well. Cell viability was assessed with CCK-8 Kit at indicated time post-treatment according to the manufacturer’s instructions. To estimate the viability of the cells, the absorbance of 450 nm (OD450) was measured with a Microplate Reader (BIO-TEK, Inc., Winooski, VT, United States). The IC50 value was calculated by GraphPad Prism 8.0 (San Diego, CA, United States) software.
(Tetrazolium dyes change colour on reduction, which living cells bring about.)

Data set [2] has as its system HT29 cells. The data set is described as follows: CCK-8 cell viability assay. The class given is cell-based. The following applies: Homo sapiens, HT-29, 72 h. The protocol: as §1
Data set [3] relates to normal renal epithelial 293T cells. As to the kind of experiment: CCK-8 cell viability assay (normal cells). It is filed as cell-based. The following applies: low concentration of HR488B (0.1-1 μM), 72 h. How it is done: as §1
The subject of the next data set is HCT116 xenograft. As to the kind of experiment: HCT116 xenograft model in nude mice. The class given is in vivo, BALB/c nude mice. The protocol: (§2) Male BALB/c nude mice (5–6 weeks) were purchased from the Jiesijie Experimental Animal Co. Ltd (Shanghai, China). All mice were maintained under SPF conditions and at constant temperature (25 °C) and relative humidity (65%) with a 12 h light/dark cycle. HCT116 cells (1 × 10^6) were inoculated into 6–7 weeks-old mice subcutaneously. Tumor volumes were evaluated by calipers and calculated using the standard formula: volume = length × width^2 × 0.5. Once tumor volume exceeded approximately 100 mm^3. […] Tumor volume was measured every 2 days. The protocols for animal care and euthanasia were approved by the Institutional Animal Care and Use Committee of Shanghai Ocean University (Shanghai, China).

Data set [4] in a line: Body weight of xenograft mice. The class given is in vivo, BALB/c nude mice. The following applies: 10 mg/kg/d ip over 21 days. How it is done: as §2
For data set [5], the system named is HCT116 cells. As to the kind of experiment: Colony formation assay. It is filed as cell-based. The following applies: HCT116, 0.2, 0.5 and 1 μM, 14 days. The protocol:
(§3) The culture medium was refreshed every other day. Cells were then continuously incubated in a new fresh medium for 10–14 days, the colonies were fixed with methanol for 15 min, stained with 0.5% crystal violet for 15 min, and photographed. Colonies were manually counted using ImageJ software.

Data set [6] has as its system HT29 cells. As to the kind of experiment: Colony formation assay. It is filed as cell-based. The following applies: HT29, 0.2, 0.5 and 1 μM, 14 days. The protocol:
as §3

Data set [7] has as its system acetylated H3/H4 protein in HCT116 cells. As to the kind of experiment: Western blot of acetylated H3/H4. The following applies: HCT116, 0.2, 0.5 and 1 μM, 24 h, compared with SAHA 1 μM. The class given is cell-based. How it is done:
(§4) Western blot analysis was performed as in our previous reports. The cells were lysed in RIPA buffer with a complete protease inhibitor cocktail for 10 min on ice followed by centrifugation at 4 °C. The concentration of proteins was determined by the BCA Protein Kit (TIANGEN, Shanghai, China). Equal amounts of total proteins were resuspended in loading buffer, boiled at 100 °C for 5 min, and separated by 10–15% […] gel electrophoresis (SDS-PAGE). Proteins were transferred onto PVDF membranes (Merck Millipore, #IPFL00010, Germany), then the membranes were blocked with 5% non-fat dry milk, and the membranes were incubated with indicated primary antibodies diluted in BSA buffer, overnight at 4 °C. The membranes were washed three times in TBST followed by 1 h incubation with secondary antibodies conjugated with horseradish peroxidase (HRP) at room temperature. Then the membranes were washed before enhanced chemiluminescence. Immunoblots were visualized with the Bio-Rad ChemiDoc XRS system. Quantification was directly performed on the blot using the Image Lab software.
A general note: A western blot detects proteins with antibodies after separation by electrophoresis.

Data set [8] has as its system acetylated H3/H4 protein in HT29 cells. The data set is described as follows: Western blot of acetylated H3/H4. It is filed as cell-based. The following applies: HT29, 0.2, 0.5 and 1 μM, 24 h, compared with SAHA 1 μM. How it is done:
as §4

In general, IC50 refers to the concentration that inhibits the measured activity by half.

For the compound `COc1ccc(N(Cc2nc(-c3ccccc3Cl)cs2)C(=O)CCCCCC(=O)NO)cc1` [HR488B], the “inhibitory effect on cell viability (in-house HDACi library screen)” value in the data set with HCT116 cells [1] (HCT116 cells, 2.5 μM, 72 h, CCK-8) is “optimum inhibitory effect”. Besides, the IC50 in the data set with HCT116 cells [1] (HCT-116, HCT116 cells, 72 h, CCK-8, read-out: IC50) amounted to 170 nM; with HT29 cells [2] it was 590 nM. Further, the “cellular toxicity of 293T cells” value in data set [3] is recorded as “did not observe any significant cellular toxicity”. In the data set with HCT116 xenograft (10 mg/kg ip, compared with control and SAHA-treated group), the average tumor weight entry is “obviously lower”. In addition, the tumor volume entry in the data set on HCT116 xenograft (10 mg/kg/d ip over 21 days, compared with control group and SAHA treatment group) is listed as “marked reduction in tumor volume”. The “body weight of mice” value in [4] was “did not decrease notably”. The “number and size of colonies” value in the data set on HCT116 cells [5] was “obviously reduced the number and size of the colonies”; with HT29 cells [6], “obviously reduced the number and size of the colonies”. Further, the “acetylation of H3 and H4” value in data set [7] was “significantly increased the acetylation of H3 and H4 in a dose-dependent manner”; in data set [8], “significantly increased the acetylation of H3 and H4 in a dose-dependent manner”.

`O=C(CCCCCCC(=O)Nc1ccccc1)NO` [SAHA, reference compound] returned an IC50 in the data set on HCT116 cells [1] (HCT-116, 72 h) of 2130 nM. Also, the “body weight of mice” value in data set [4] was “did not decrease notably”.
